# Positions of bridges follow the written chain, without caps; N, C: chain ends. Residues, ends and D or L forms follow the SMILES beside them. *: point of attachment. DOTA = O=C(O)CN1CCN(CC(=O)O)CCN(CC(=O)*)CCN(CC(=O)O)CC1; NODAGA = O=C(O)CN1CCN(CC(=O)O)CCN(C(CCC(=O)*)C(=O)O)CC1; Ahx = NCCCCCC(=O)O
# Assays:
# [1] = system: mouse blood plasma proteins; test: Blood plasma protein binding, mouse plasma (ultrafiltration); assay type: in vitro ADME; conditions: 30 min, 37 °C
# Method: (§1) The radiopeptides (0.3 MBq; 15 pmol) were incubated in human or murine blood plasma (150 μL) for 30 min at 37 °C followed by cooling on ice, addition of ice-cold PBS (150 μL) and transfer of the samples to amicon filter devices (Amicon Ultra, 0.5 mL, Merck Millipore; cutoff 10 kDa). The filter ensured the retention of the radiopeptides bound to mouse plasma proteins or human plasma proteins during filtration (14,000 rcf, 30 min at 4 °C). Afterward, the filter inserts were inverted and centrifuged again (200 rcf, 3 min) to recover the protein-bound fraction of the radiopeptides. The activities of the free radiopeptides in the filtrate, as well as in the filter insert and the plasma protein-bound radiopeptides (Abound), were counted for activity separately in a γ-counter. The total activity (Atotal) was determined as the sum of the activities in the filtrate, filter insert, and protein-bound fractions. The percentage of radiopeptide bound to mouse serum albumin (MSA) and human serum albumin (HSA) was calculated as Abound/Atotal*100. The results were presented as average ± SD of three independent experiments (Additional file 1).
# (§2) Methods: The detailed methods are reported in the main article. Control experiments were performed by incubation of the respective radiopeptides in phosphate-buffered saline (PBS) instead of blood plasma, followed by ultracentrifugation using Amicon filters.
# [2] = as above; assay type: in vitro ADME; conditions: mouse, plasma, 30 min, 37 °C, read-out: Fraction bound to blood plasma proteins (converted)
# Method: as §1, §2
# [3] = target: T1, ACE (Homo sapiens, UniProt P12821); test: ACE-binding affinity (saturation binding on HEK-ACE cells); conditions: on ice, 1 h
# T1 construct: host or cells: HEK-293
# T1 sequence (P12821 30-1306): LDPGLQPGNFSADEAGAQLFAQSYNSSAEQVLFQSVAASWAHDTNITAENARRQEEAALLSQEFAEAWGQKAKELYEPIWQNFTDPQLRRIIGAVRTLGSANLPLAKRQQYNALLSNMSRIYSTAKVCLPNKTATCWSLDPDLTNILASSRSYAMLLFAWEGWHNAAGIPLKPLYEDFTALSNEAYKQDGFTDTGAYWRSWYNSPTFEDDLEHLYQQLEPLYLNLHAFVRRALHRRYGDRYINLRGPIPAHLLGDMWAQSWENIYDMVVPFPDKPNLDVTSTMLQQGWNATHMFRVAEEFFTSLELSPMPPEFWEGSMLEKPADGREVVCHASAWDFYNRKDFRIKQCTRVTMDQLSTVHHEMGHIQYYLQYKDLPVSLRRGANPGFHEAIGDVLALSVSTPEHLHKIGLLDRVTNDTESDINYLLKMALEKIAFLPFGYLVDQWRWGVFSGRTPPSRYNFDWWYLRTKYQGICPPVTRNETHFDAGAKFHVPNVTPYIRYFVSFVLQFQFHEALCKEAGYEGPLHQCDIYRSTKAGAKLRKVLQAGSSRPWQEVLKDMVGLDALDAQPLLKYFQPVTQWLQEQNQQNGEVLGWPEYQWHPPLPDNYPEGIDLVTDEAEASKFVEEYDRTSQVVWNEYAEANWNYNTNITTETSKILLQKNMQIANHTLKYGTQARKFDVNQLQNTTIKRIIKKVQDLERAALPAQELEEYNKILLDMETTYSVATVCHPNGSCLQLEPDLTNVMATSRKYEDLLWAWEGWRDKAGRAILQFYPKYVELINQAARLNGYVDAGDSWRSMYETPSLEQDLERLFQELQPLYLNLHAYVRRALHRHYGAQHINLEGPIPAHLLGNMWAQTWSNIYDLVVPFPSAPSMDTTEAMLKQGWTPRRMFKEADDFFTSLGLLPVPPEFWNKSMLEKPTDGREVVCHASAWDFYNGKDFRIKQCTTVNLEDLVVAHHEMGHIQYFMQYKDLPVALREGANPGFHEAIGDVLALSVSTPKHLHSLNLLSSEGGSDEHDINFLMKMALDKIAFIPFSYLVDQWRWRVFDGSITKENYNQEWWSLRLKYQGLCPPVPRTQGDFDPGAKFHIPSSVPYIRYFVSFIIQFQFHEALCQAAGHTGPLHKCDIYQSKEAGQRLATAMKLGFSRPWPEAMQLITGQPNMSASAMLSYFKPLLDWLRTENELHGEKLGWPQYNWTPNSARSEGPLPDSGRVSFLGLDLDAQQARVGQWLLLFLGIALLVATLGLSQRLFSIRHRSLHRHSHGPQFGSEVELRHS
# Method: In order to determine the KD values of the DX600-based radiopeptides and [^67Ga]Ga-DOTA-BPP9a, HEK-ACE2 and HEK-ACE cells were seeded in 48-well-plates allowing adhesion and growth overnight. The cell samples were incubated with increasing concentrations (1‒2000 nM) of the radiopeptides (5 MBq/nmol) on ice. Some of the cell samples were co-incubated with an excess of cyclo-DX600 or lisinopril (20 µM, 10 nmol) to block ACE2 or ACE, respectively, enabling the determination of non-specific binding (Additional file 1). After 1 h incubation, the cells were rinsed with PBS and lysed with NaOH (1 M, 600 µL) to count the activity in a γ-counter. The KD values were determined by plotting specific binding (total binding minus unspecific binding) against the molar concentration of the added radiopeptide. A nonlinear regression analysis was performed using GraphPad Prism software (version 8.3.1).
# [4] = system: HEK-ACE2 cells; test: Cell uptake and internalization in HEK-ACE2 cells; assay type: cell-based, human
# Method: HEK-293 cells transfected with ACE2 or ACE, referred to as HEK-ACE2 and HEK-ACE, respectively, were obtained from Innoprot (Innovative Technologies in Biological Systems S.L. Bizkaia, Spain). The cells were cultured in Dulbecco’s Modified Eagle Medium (DMEM) supplemented with nonessential amino acids, fetal calf serum and antibiotics. Hygromycin B was used to maintain the expression of ACE2 and ACE, respectively. The HEK cells were cultured under standard conditions at 37 °C and 5% CO2 and subcultured using PBS/EDTA and trypsin.
# The uptake and internalization of [^67Ga]Ga-DOTA-DX600, [^67Ga]Ga-NODAGA-DX600, [^67Ga]Ga-HBED-CC-DX600 and [^67Ga]Ga-DOTA-BPP9a were determined using HEK-ACE2 and HEK-ACE cells. The cells were seeded in poly-D-lysine-coated 12-well plates allowing cell adhesion and growth overnight. After rinsing the cells with PBS, they were incubated with the respective radiopeptide (25 µL, 1.9 pmol, 38 kBq). In some cell samples, the radiopeptides were co-incubated with excess of cyclo-DX600 (2 µM) or lisinopril (4 µM) to block ACE2 or ACE, respectively. After incubation of the cells for 1 h or 3 h, they were rinsed with PBS or acidic stripping buffer (glycine buffer with NaCl 0.9%, pH 2.8) to determine the total uptake and internalization of the radiopeptides, respectively. Cell samples were lysed using NaOH (1 M, 1 mL) before counting the activity in a γ-counter. The results were expressed as a percentage of total added activity and normalized to an average content of ~ 0.3 mg protein per well.
# Methods: The methods for cell uptake studies are reported in the main article. The cyclo-DX600 (ACE2 inhibitor) and lisinopril (ACE inhibitor) were applied at a final concentration of 2 µM and 4 µM, respectively.
smiles,measurement,setting,value
"CC[C@H](C)[C@H](NC(=O)[C@H](CCC(N)=O)NC(=O)[C@@H]1CCCN1C(=O)[C@H](CCCNC(=N)N)NC(=O)[C@@H]1CCCN1C(=O)[C@H](Cc1c[nH]c2ccccc12)NC(=O)[C@H](CCC(=O)O)NC(=O)CCCCCNC(=O)CCCCCNC(=O)CN1CCN(CC(=O)O)CCN(CC(=O)O)CCN(CC(=O)O)CC1)C(=O)N1CCC[C@H]1C(=O)N1CCC[C@H]1C(=O)O [[^67Ga]Ga-DOTA-BPP9a, metal not drawn] ({DOTA-Ahx-Ahx}-EWPRPQIPP-OH)",Fraction bound to blood plasma proteins,[1],~ 53%
same,fraction unbound,[2],0.47
same,Kd,[3],693 ± 354 nM
"CC(=O)N[C@@H](CCCCNC(=O)CCC(C(=O)O)N1CCN(CC(=O)O)CCN(CC(=O)O)CC1)C(=O)NCC(=O)N[C@@H](CC(=O)O)C(=O)N[C@@H](Cc1ccc(O)cc1)C(=O)N[C@@H](CO)C(=O)N[C@@H](Cc1c[nH]cn1)C(=O)N[C@H]1CSSC[C@@H](C(=O)N[C@H](C(=O)N[C@@H](Cc2ccc(O)cc2)C(=O)N2CCC[C@H]2C(=O)N[C@@H](CC(=O)O)C(=O)N2CCC[C@H]2C(=O)N[C@@H](CCC(=O)O)C(=O)NCC(=O)NCC(=O)NCC(N)=O)[C@@H](C)O)NC(=O)[C@H](CCCCN)NC(=O)[C@H](Cc2c[nH]c3ccccc23)NC(=O)[C@H](Cc2c[nH]c3ccccc23)NC(=O)[C@@H]2CCCN2C(=O)[C@H](Cc2ccc(O)cc2)NC(=O)[C@H](Cc2ccc(O)cc2)NC(=O)[C@H](CCCNC(=N)N)NC(=O)[C@H](CC(C)C)NC(=O)[C@@H]2CCCN2C(=O)[C@H](CO)NC1=O (stereo partly drawn) [[^67Ga]Ga-NODAGA-DX600, metal not drawn] (Ac-K(NODAGA)GDYSHCSPLRYYPWWKCTYPDPEGGG-NH2; disulfide 7-18)",Internalized fraction in HEK-ACE2 cells,"[4]; 3 h incubation, acidic stripping buffer",8.2 ± 0.3%
same,Uptake in HEK-ACE2 cells,"[4]; 3 h incubation, percentage of total added activity",40 ± 3%
same,Uptake in HEK-ACE2 cells in the presence of excess cyclo-DX600 (unspecifically bound),[4]; co-incubation with cyclo-DX600 2 µM,3.1 ± 1.1%
